The values below come from US20200297820A1, “STIMULATION OF HUMAN MEIBOMIAN GLAND FUNCTION” (The Schepens Eye Research Institute, Inc., priority 2013, published 2020).

What all share (format): cell-based
Test [1] concerns human meibomian gland epithelial cells. Kind of test: High-performance thin-layer chromatography of total cellular lipid extracts. The following applies: for accumulation of CE / accumulation of TG: 10 nM IGF-1 or 10 μg/mL AZM. The text has this: Cell numbers were enumerated with a hemocytometer. Cellular lipid and lysosome accumulation were examined by staining cells with: Filipin III (a fluorometric probe for identifying unesterified cholesterol), LipidTOX green neutral lipid stain, and LysoTracker® Red DND-99 (a fluorescent technique designed for labeling acidic organelles such as lysosomes). Lysosomal lamellar bodies were identified by transmission electron microscopy. In brief, after culture and treatment on 24 mm polycarbonate membrane transwell inserts (0.4 μm pore size), cells were fixed in a solution of 2% formaldehyde+2.5% glutaraldehyde, in 0.08 M sodium cacodylate buffer, pH 7.4, post-fixed with 2% osmium tetroxide in 0.1 M sodium cacodylate buffer, and stained en bloc with 2% aqueousuranyl acetate. Samples were then dehydrated in graded ethyl alcohol solutions and embedded by using the tEPON-812 epoxy resin kit. Cross sections ([…]) were stained with 1% toluidine blue in 1% sodium tetraborate solution. Ultra-thin sections (60-90 nm) were imaged with a transmission electron microscope interfaced with a digital CCD camera. For biochemical assessments, cellular lipids were extracted with chloroform and methanol from samples with the same amount of protein. Lipids were then evaluated with high-performance thin-layer chromatography. With regard to the staining results, three Filipin, five LipidTox and four LysoTracker studies were conducted, and each experiment was performed in duplicate. Four random pictures were taken of each group, and four random areas were selected for the measurement of fluorescent intensities. The HPTLC experiments were performed in duplicate more than three times. Image data were quantified with ImageJ (http://rsbweb.nib.gov/ij/index.html). Electron microscopic analyses were performed in triplicate.
FIG. 8a illustrates the effect of AZM on the expression of cholesterol ester (CE), free cholesterol (FC), phosphatidylethanolamine (PE), phosphatidylcholine (PC), and phosphatidylinositol (PI) inhuman meibomian gland epithelial cells. Cells were treated with vehicle or 10 μg/ml AZM for 5 days before performing chromatographic analyses of total lipid extracts. FIG. 8b illustrates band intensity of the cells shown in FIG. 8a measured using ImageJ. Control band intensity was set to 1, and data (mean±SE) are reported as fold-change compared to control values. *p<0.05,**p<0.005, versus control. Band intensity analysis includes data from at least three independent experiments.
FIGS. 14a and 14b illustrate the effect of IGF-1, AZM, and IFG-1+AZM combination on the accumulation of CE, TG, FC, PE, and PC. […] FIG. 14b quantifies band intensity using ImageJ. The control band intensity was set to 1, and data (mean 6 SE) were reported as fold-change compared with control values. […] Other bands are unidentified lipids. Band intensity analysis included data from three independent experiments.

Another test relates to LNCaP cells. The experiment in a line: Proliferation of LNCaP control cells. The conditions noted are these: 1% FBS, 2 days. On the procedure:
Regarding cell proliferation assay, the human meibomian gland epithelial cells and LNCaP cells were cultured in 12-well plates in designated media and then exposed to IGF-1 or GH for defined periods. At experimental termination, cells were trypsinized and counted with a hemocytometer.
FIGS. 10a, 10b, and 10c illustrate the influence of IGF-1 on the proliferation of human meibomian gland epithelial cells. Cells were cultured (100,000 cells/well in 12-well plates, 3 wells per group) in basal, proliferating, and/or differentiating media and treated with IGF-I for 2 to 6 days. […] P values are for post hoc comparison compared with the control value. […] ANOVA indicates analysis of variance; EGF-BPE, epidermal growth factor-bovine pituitary extract; KSFM, keratinocyte serum-free medium. All comparisons are with control value. Whiskers mark SEM. aP<0.05 compared with the control value, post hoc test.

Test [2] concerns immortalized human meibomian gland cells. The experiment in a line: 13-cis RA-induced late apoptosis/necrosis.
Test [3] relates to human meibomian gland epithelial cells. The experiment in a line: Immunoblot of signaling pathways (Akt, FoxO1, ERK, JAK2/STAT5). On the procedure: The disclosure turns now to sodium dodecyl sulfate-polyacrylamide gel, electrophoresis, and immunoblots. Cells were directly lysed in Laemmli buffer supplemented with 1% protease inhibitor cocktail (Sigma-Aldrich) and 5% β-mercaptoethanol (Sigma-Aldrich). Lysates were heated at 95° C. for 10 minutes, separated by sodium dodecyl sulfate-polyacrylamide gel electrophoresis on 10% Tris-glycine precast gels, and transferred to polyvinylidene difluoride membranes. Rabbit or mouse antibodies used were specific for phosphorylated Akt (p-Akt), pan-Akt, p-FoxO1, FoxO1, p-JAK2, JAK2, and β-actin; for p-ERK, ERK-2, STAT5, and the precursor form of SREBP-1; and for p-STAT5. Membranes were blocked with 5% bovine serum albumin in Tris-buffered saline containing 0.01% polysorbate 20. All primary antibodies were diluted to 1:1000 in blocking buffer except for p-Akt (1:4000), p-ERK (1:2000), ERK-2 (1:4000), SREBP-1 (1:200), and β-actin (1:10 000). Horseradish peroxidase-conjugated secondary antibodies were goat anti-rabbit IgG and Fc-specific goat anti-mouse IgG diluted to 1:5000. Proteins were visualized with enhanced chemiluminescent substrate or with ultrasensitive chemiluminescent substrate. Densitometry was performed with image-processing software.
To determine whether IGF-1 promotes the phosphorylation of Akt in human meibomian gland epithelial cells, cells were cultured under proliferating or differentiating conditions and then exposed to IGF-1 for 15 minutes.
FIGS. 9a, 9b, and 9c illustrate the effects of insulin-like growth factor 1 (IGF-1) and growth hormone (GH) on signaling pathways in human meibomian gland epithelial cells. Cells were cultured in keratinocyte serum-free medium containing epidermal growth factor (EGF) and bovine pituitary extract (BPE) for 2 days and then keratinocyte serum-free medium alone overnight or were cultured in 10% fetal bovine serum (FBS) medium for 5 to 7 days and in 1% FBS medium overnight. Cells were then incubated with vehicle or a 10 μM concentration of LY294002 for 2 hours, followed by IGF-1 or GH treatment for 15 minutes. Cell lysates were evaluated on immunoblotting. […] These experiments were repeated at least 3 times with similar results.
To assess whether GH activates Akt, FoxO1, ERK-2, or its classic (i.e., JAK2 and STAT5) signaling pathways in human meibomian gland epithelial cells, cells were cultured in proliferating or differentiating media, and were exposed to a 10 nM concentration of GH for 15 minutes, and processed for immunoblot analyses. […]
In general terms: In western blotting, separated proteins are transferred to a membrane and probed.

Test [4] concerns immortalized human meibomian gland epithelial cells. Kind of test: LipidTOX green neutral lipid staining (lipid accumulation). The conditions noted are these: 10 nM each hormone, up to 13 days.

In the case of `CC[C@H]1OC(=O)[C@H](C)[C@@H](O[C@H]2C[C@@](C)(OC)[C@@H](O)[C@H](C)O2)[C@H](C)[C@@H](O[C@@H]2O[C@H](C)C[C@H](N(C)C)[C@H]2O)[C@](C)(O)C[C@@H](C)CN(C)[C@H](C)[C@@H](O)[C@]1(C)O` [Azithromycin], in test [1] (7 days), the “accumulation of CE” value was “significant effect” and the “accumulation of TG” value is recorded as “significant effect”. Besides, the “accumulation of PE” value in test [1] (10 μg/mL AZM, 7 days) was “significant effect”. Besides, in test [1] (10 μg/ml, 5 days), the “accumulation of esterified cholesterol (CE)” value is “significantly promotes an accumulation”, the “accumulation of free cholesterol (FC)” value was “significantly promotes an accumulation”, the “accumulation of phosphatidylcholine (PC)” value is “significantly promotes an accumulation” and the “accumulation of phosphatidylethanolamine (PE)” value was “significantly promotes an accumulation”. The “accumulation of phosphatidylinositol (PI)” value in test [1] (10 μg/ml, 5 days) was “significantly promotes an accumulation”.
For the molecule “IGF-1: recombinant human insulin-like growth factor 1”, the proliferation entry in the test with LNCaP cells is listed as “increased”. In test [2], the “13-cis RA-induced late apoptosis/necrosis” value is recorded as “attenuates”. Besides, the “phosphorylation of extracellular-signal-regulated kinases (ERKs)” value in test [3] was “increase the phosphorylation”. For the same molecule, the “phosphorylation of ERK” value in test [3] (10 nM, 15 minutes, 2 studies enhanced, 3 no influence) was “inconsistent effect”. Further, the “phosphorylation of FoxO1” value in test [3] (10 nM, 15 minutes, differentiating cells) is “increased phosphorylation of FoxO1”. Further, the “culture condition in which Akt and FoxO1 phosphorylation occurred” value in test [3] (10 nM, 15 minutes, proliferating or differentiating conditions) is recorded as “differentiating but not proliferating cells”. In test [3] (IGF-1 for 15 minutes), the “concentration at which p-Akt effect became maximal” value stood at 10 nM and the “concentration at which p-Akt effect could be detected” value turned out to be 1 nM. In test [3] (IGF-1 for 15 minutes, differentiating cells), the “expression of p-Akt” value is on record as “dose-dependent expression of p-Akt”. In addition, the “phosphorylation of Akt” value in test [3] (within minutes) is given as “increases the phosphorylation of Akt”. In addition, in test [1] (7 days), the “accumulation of CE” value is “significant effect” and the “accumulation of TG” value is on record as “significant effect”. For the same molecule, in test [4], the accumulation of lipid result is “significant accumulation of lipid”.
In the case of GH: human growth hormone, in the test on LNCaP cells, the proliferation result is on record as “increased”. Moreover, the “phosphorylation of extracellular-signal-regulated kinases (ERKs)” value in test [3] was “increase the phosphorylation”. The “activation of Akt, FoxO1, ERK-2, JAK2 and STAT5” value in test [3] (10 nM, 15 minutes, proliferating or differentiating media) is reported as “did not show that GH elicited effects”; in test [3] (doses of 0.05 to 50 nM), “negative results”. In test [4], the accumulation of lipid result is reported as “significant accumulation of lipid”.
